According to ChEMBL document CHEMBL4831541, “Antibiotic Conjugates with an Artificial MECAM-Based Siderophore Are Potent Agents against Gram-Positive and Gram-Negative Bacterial Pathogens” (2021):
≈ marks a conversion by molar mass, not a printed value. Blank lines part the entries; values can stand above or below the compound they belong to. Calls of active or inactive are those of the source. The rule behind the calls is not given here.

Experiments:
Escherichia coli [1] = assay: Antibacterial activity against Escherichia coli BW25113 assessed as growth inhibition by measuring minimal concentration at OD600 by visual inspection with iron-limited media incubated for 24 hrs; type: functional
Staphylococcus aureus = assay: Antibacterial activity against Staphylococcus aureus DSM11822 assessed as growth inhibition by measuring minimal concentration at OD600 by visual inspection with iron-limited media incubated for 24 hrs; type: functional
Acinetobacter baumannii = assay: Antibacterial activity against Acinetobacter baumannii DSM30007 assessed as growth inhibition by measuring minimal concentration at OD600 by visual inspection with iron-limited media incubated for 24 hrs; type: functional
Enterococcus faecium = assay: Antibacterial activity against Enterococcus faecium DSM20477 assessed as growth inhibition by measuring minimal concentration at OD600 by visual inspection with iron-limited media incubated for 24 hrs; type: functional
Klebsiella pneumoniae = assay: Antibacterial activity against Klebsiella pneumoniae DSM11678 assessed as growth inhibition by measuring minimal concentration at OD600 by visual inspection with iron-limited media incubated for 24 hrs; type: functional, organism-based
Pseudomonas aeruginosa = assay: Antibacterial activity against Pseudomonas aeruginosa DSM24068 assessed as growth inhibition by measuring minimal concentration at OD600 by visual inspection with iron-limited media incubated for 24 hrs; type: functional, organism-based
[2] = Metal chelating activity assessed as Fe3+-compound complex formation measured after 17 hrs by chrome azurol S dye based colorimetric assay
Escherichia coli [3] = assay: Recovery of growth in Escherichia coli BW25113 delta entA assessed as reversal of growth at 10 uM in presence of 0.1 uM iron(III) chloride hexahydrate by growth recovery assay; type: functional, organism-based
Escherichia coli [4] = assay: Drug uptake in Escherichia coli BW25113 delta entA assessed in membrane fraction pre-treated at 10 uM in presence of 0.1 uM iron(III) chloride hexahydrate by mass spectrometry based cell fractionation assay; type: functional, organism-based
Escherichia coli [5] = assay: Drug uptake in Escherichia coli BW25113 delta entA assessed in peri-plasmic fraction pre-treated at 10 uM in presence of 0.1 uM iron(III) chloride hexahydrate by mass spectrometry based cell fractionation assay; type: functional, organism-based
Escherichia coli [6] = assay: Drug uptake in Escherichia coli BW25113 delta entA assessed in cytoplasmic fraction pre-treated at 10 uM in presence of 0.1 uM iron(III) chloride hexahydrate by mass spectrometry based cell fractionation assay; type: functional, organism-based
Escherichia coli [7] = assay: Antibacterial activity against wild type Escherichia coli BW25113 assessed as growth inhibition by measuring minimal concentration at OD600 by visual inspection with iron-limited media incubated for 24 hrs; type: functional
Escherichia coli [8] = assay: Antibacterial activity against Escherichia coli delta fepA assessed as growth inhibition by measuring minimal concentration at OD600 by visual inspection with iron-limited media incubated for 24 hrs; type: functional
Escherichia coli [9] = assay: Antibacterial activity against Escherichia coli delta cirA assessed as growth inhibition by measuring minimal concentration at OD600 by visual inspection with iron-limited media incubated for 24 hrs; type: functional
Escherichia coli [10] = assay: Antibacterial activity against Escherichia coli delta fiu assessed as growth inhibition by measuring minimal concentration at OD600 by visual inspection with iron-limited media incubated for 24 hrs; type: functional
Escherichia coli [11] = assay: Antibacterial activity against Escherichia coli delta fepA delta cirA assessed as growth inhibition by measuring minimal concentration at OD600 by visual inspection with iron-limited media incubated for 24 hrs; type: functional
Escherichia coli [12] = assay: Antibacterial activity against Escherichia coli delta […] delta fiu assessed as growth inhibition by measuring minimal concentration at OD600 by visual inspection with iron-limited media incubated for 24 hrs; type: functional
Escherichia coli [13] = assay: Antibacterial activity against Escherichia coli delta cirA delta fiu assessed as growth inhibition by measuring minimal concentration at OD600 by visual inspection with iron-limited media incubated for 24 hrs; type: functional
Escherichia coli [14] = assay: Antibacterial activity against Escherichia coli delta fepA delta cirA delta fiu assessed as growth inhibition by measuring minimal concentration at OD600 by visual inspection with iron-limited media incubated for 24 hrs; type: functional
Escherichia coli [15] = assay: Antibacterial activity against Escherichia coli delta tonB assessed as growth inhibition by measuring minimal concentration at OD600 by visual inspection with iron-limited media incubated for 24 hrs; type: functional
Escherichia coli [16] = assay: Antibacterial activity against Escherichia coli delta exbB assessed as growth inhibition by measuring minimal concentration at OD600 by visual inspection with iron-limited media incubated for 24 hrs; type: functional
Escherichia coli [17] = assay: Antibacterial activity against Escherichia coli delta fepB assessed as growth inhibition by measuring minimal concentration at OD600 by visual inspection with iron-limited media incubated for 24 hrs; type: functional
Escherichia coli [18] = assay: Antibacterial activity against Escherichia coli delta fepD assessed as growth inhibition by measuring minimal concentration at OD600 by visual inspection with iron-limited media incubated for 24 hrs; type: functional

Structure (SMILES): CC1(C)S[C@@H]2[C@H](NC(=O)[C@H](NC(=O)CCn3cc(CCCC(=O)Nc4c(CNC(=O)c5cccc(O)c5O)cc(CNC(=O)c5cccc(O)c5O)cc4CNC(=O)c4cccc(O)c4O)nn3)c3ccccc3)C(=O)N2[C@H]1C(=O)O
- MIC (Escherichia coli [1]): 0.89 µM (≈ 1 µg/mL)
- MIC (Staphylococcus aureus): 5.3 µM (≈ 5.98 µg/mL)
- MIC (Acinetobacter baumannii): > 57 µM
- MIC (Enterococcus faecium): > 57 µM
- Activity (Klebsiella pneumoniae): inactive
- Activity (Pseudomonas aeruginosa): inactive

Structure (SMILES): O=C(NCc1cc(CNC(=O)c2cccc(O)c2O)cc(CNC(=O)c2cccc(O)c2O)c1)c1cccc(O)c1O
- Activity (Escherichia coli [3]): Active

Structure (SMILES): CCCCCCCCCC(=O)N[C@@H](Cc1c[nH]c2ccccc12)C(=O)N[C@H](CC(N)=O)C(=O)N[C@@H](CC(=O)O)C(=O)N[C@@H]1C(=O)NCC(=O)N[C@@H](CCCNC(=O)CCCCCn2cc(CCCC(=O)Nc3c(CNC(=O)c4cccc(O)c4O)cc(CNC(=O)c4cccc(O)c4O)cc3CNC(=O)c3cccc(O)c3O)nn2)C(=O)N[C@@H](CC(=O)O)C(=O)N[C@H](C)C(=O)N[C@@H](CC(=O)O)C(=O)NCC(=O)N[C@H](CO)C(=O)N[C@@H]([C@@H](C)CC(=O)O)C(=O)N[C@@H](CC(=O)c2ccccc2N)C(=O)O[C@@H]1C
- MIC (Escherichia coli [1]): > 64 µM
- MIC (Staphylococcus aureus): 8.7 µM (≈ 21.3 µg/mL)
- MIC (Acinetobacter baumannii): 4.4 µM (≈ 10.7 µg/mL)
- MIC (Enterococcus faecium): 13 µM (≈ 31.8 µg/mL)
- Activity (Klebsiella pneumoniae): inactive
- Activity (Pseudomonas aeruginosa): inactive

Structure (SMILES): CC(=O)Oc1cccc(C(=O)NCCc2cc(CCNC(=O)c3cccc(OC(C)=O)c3OC(C)=O)c([N+](=O)[O-])c(CCNC(=O)c3cccc(OC(C)=O)c3OC(C)=O)c2)c1OC(C)=O
- Activity (Escherichia coli [3]): Active

Further lines, with some results ahead:

- MIC (Escherichia coli [1]): > 64 µM
- MIC (Staphylococcus aureus): 0.36 µM (≈ 0.583 µg/mL)
- MIC (Acinetobacter baumannii): > 39 µM
- MIC (Enterococcus faecium): 0.62 µM (≈ 1 µg/mL)
Structure (SMILES): CCCCCCCCCC(=O)N[C@@H](Cc1c[nH]c2ccccc12)C(=O)N[C@H](CC(N)=O)C(=O)N[C@@H](CC(=O)O)C(=O)N[C@@H]1C(=O)NCC(=O)N[C@@H](CCCN)C(=O)N[C@@H](CC(=O)O)C(=O)N[C@H](C)C(=O)N[C@@H](CC(=O)O)C(=O)NCC(=O)N[C@H](CO)C(=O)N[C@@H]([C@H](C)CC(=O)O)C(=O)N[C@@H](CC(=O)c2ccccc2N)C(=O)O[C@@H]1C

- Activity [2]: Active
Structure (SMILES): O=C(NCc1cc(CNC(=O)c2cccc(O)c2O)c([N+](=O)[O-])c(CNC(=O)c2cccc(O)c2O)c1)c1cccc(O)c1O
- Activity (Escherichia coli [3]): Active
- Drug uptake (Escherichia coli [4]): Active
- Drug uptake (Escherichia coli [5]): Active
- Drug uptake (Escherichia coli [6]): inactive

- MIC (Escherichia coli [1]): 0.042 µM (≈ 0.0316 µg/mL)
- MIC (Staphylococcus aureus): > 85 µM
- MIC (Acinetobacter baumannii): 0.053 µM (≈ 0.0399 µg/mL)
- MIC (Enterococcus faecium): > 85 µM
- MIC (Escherichia coli [7]): 33 µM (≈ 24.8 µg/mL)
- MIC (Escherichia coli [8]): 0.17 µM (≈ 0.128 µg/mL)
- MIC (Escherichia coli [9]): 0.66 µM (≈ 0.496 µg/mL)
- MIC (Escherichia coli [10]): 0.66 µM (≈ 0.496 µg/mL)
- MIC (Escherichia coli [11]): 0.17 µM (≈ 0.128 µg/mL)
- MIC (Escherichia coli [12]): 0.66 µM (≈ 0.496 µg/mL)
- MIC (Escherichia coli [13]): 21 µM (≈ 15.8 µg/mL)
- MIC (Escherichia coli [14]): > 21 µM
- MIC (Escherichia coli [15]): > 21 µM
- MIC (Escherichia coli [16]): 5.3 µM (≈ 3.99 µg/mL)
- MIC (Escherichia coli [17]): 0.083 µM (≈ 0.0624 µg/mL)
- MIC (Escherichia coli [18]): 0.083 µM (≈ 0.0624 µg/mL)
Structure (SMILES): CC(C)(O/N=C(\C(=O)N[C@@H]1C(=O)N2C(C(=O)[O-])=C(C[N+]3(CCNC(=O)c4ccc(O)c(O)c4Cl)CCCC3)CS[C@H]12)c1csc(N)n1)C(=O)O [CEFIDEROCOL]

- MIC (Escherichia coli [1]): 19 µM (≈ 6.64 µg/mL)
- MIC (Staphylococcus aureus): > 183 µM
- MIC (Acinetobacter baumannii): > 183 µM
- MIC (Enterococcus faecium): 2.7 µM (≈ 0.943 µg/mL)
- MIC (Escherichia coli [7]): 46 µM (≈ 16.1 µg/mL)
- MIC (Escherichia coli [8]): 46 µM (≈ 16.1 µg/mL)
- MIC (Escherichia coli [9]): 46 µM (≈ 16.1 µg/mL)
- MIC (Escherichia coli [10]): 46 µM (≈ 16.1 µg/mL)
- MIC (Escherichia coli [11]): 46 µM (≈ 16.1 µg/mL)
- MIC (Escherichia coli [12]): 46 µM (≈ 16.1 µg/mL)
- MIC (Escherichia coli [13]): 46 µM (≈ 16.1 µg/mL)
- MIC (Escherichia coli [14]): 46 µM (≈ 16.1 µg/mL)
- MIC (Escherichia coli [15]): 46 µM (≈ 16.1 µg/mL)
- MIC (Escherichia coli [16]): 46 µM (≈ 16.1 µg/mL)
- MIC (Escherichia coli [17]): 46 µM (≈ 16.1 µg/mL)
- MIC (Escherichia coli [18]): 46 µM (≈ 16.1 µg/mL)
Structure (SMILES): CC1(C)S[C@@H]2[C@H](NC(=O)[C@H](N)c3ccccc3)C(=O)N2[C@H]1C(=O)O [AMPICILLIN]
